# Reference: PMC13626057, “Sensitizing tumor response to topoisomerase I antibody-drug conjugate by selective CDK7 inhibition” (Science Advances, 2026)
# pIC50: −log10 of the molar value. Read-outs that look alike come from different tables or passages of the source.
# Key:
# H292 cells = experiment: H292 cell viability, single agent and combination (SynergyFinder, ATP Lite); format: cell-based; conditions: 72 hours
# Method: (§1) SynergyFinder was performed by Oncolines (Oss, Netherlands). […] The absolute IC5_0 values were determined from the dose-response curves generated in XL-fit 5 using the four-parameter logistic equation: fit = A + ((B − A)/{1 + [(C/x)^D]}), where A and B represent the bottom and top plateaus of the curve, C is the IC5_0 value, x is the compound concentration, and D is the Hill slope.
# H292 xenograft = experiment: H292 cell line-derived xenograft efficacy; format: in vivo, BALB/c nude mice; conditions: for tumor growth inhibition (TGI): by day 28
# Method: BALB/c nude mice were purchased from the Shanghai SIPPR/BK Laboratory Animal Co. Ltd. (Shanghai, China). For in vivo efficacy studies, HCT116 cells or H292 cells were resuspended in PBS and Matrigel (1:1) and implanted subcutaneously. When tumors reached an average size of 117 mm^3 (HCT116) or 140 mm^3 (H292), mice were randomized into four groups (n = 8 per group) and treated with Q901 (3 or 10 mg/kg, intraperitoneally once daily), T-DXd (10 mg/kg, single intravenous administration on day 0), SG (3 mg/kg, single intravenous administration on days 1 and 8), or a combination thereof. Tumor volumes were measured twice weekly after randomization in two dimensions, using a caliper. The TGI was calculated for each group using the formula: TGI (%) = [1 − (Ti − T0)/(Vi − V0)] × 100, where Ti is the average tumor volume of the treatment group on the given day, T0 is the average tumor volume of the treatment group on the day when the treatment was started, Vi is the average tumor volume of the vehicle control group on the same day with Ti, and V0 is the average tumor volume of the vehicle group on the day of treatment start. Statistical significance was calculated using a two-way analysis of variance (ANOVA) followed by Tukey’s multiple comparison test in GraphPad Prism 10.4.1.
# HCT116 cells = experiment: HCT116 cell viability, single agent and combination (SynergyFinder, ATP Lite); format: cell-based; conditions: Homo sapiens, HCT-116; 72 hours, alone
# Method: as §1
# CDK7 = molecular target: T1, CDK7 (Homo sapiens, UniProt P50613); experiment: Radiometric protein kinase assay (PanQinase; 410-kinase panel and 28 CDK titration); format: biochemical; conditions: ATP at apparent ATP-Km
# T1 construct: purchased Reaction Biology (Freiburg, Germany), assay service
# T1 sequence (P50613 whole entry): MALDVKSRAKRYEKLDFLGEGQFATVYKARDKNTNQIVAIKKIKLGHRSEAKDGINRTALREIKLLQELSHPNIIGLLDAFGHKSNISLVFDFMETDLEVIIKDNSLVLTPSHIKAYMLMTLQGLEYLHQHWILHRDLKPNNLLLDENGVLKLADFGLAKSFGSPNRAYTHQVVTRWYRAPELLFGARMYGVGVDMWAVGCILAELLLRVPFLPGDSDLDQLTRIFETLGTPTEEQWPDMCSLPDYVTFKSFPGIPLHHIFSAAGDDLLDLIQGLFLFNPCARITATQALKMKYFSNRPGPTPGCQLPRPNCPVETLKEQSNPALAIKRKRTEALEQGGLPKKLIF
# T1 sequence (P51946 whole entry partner): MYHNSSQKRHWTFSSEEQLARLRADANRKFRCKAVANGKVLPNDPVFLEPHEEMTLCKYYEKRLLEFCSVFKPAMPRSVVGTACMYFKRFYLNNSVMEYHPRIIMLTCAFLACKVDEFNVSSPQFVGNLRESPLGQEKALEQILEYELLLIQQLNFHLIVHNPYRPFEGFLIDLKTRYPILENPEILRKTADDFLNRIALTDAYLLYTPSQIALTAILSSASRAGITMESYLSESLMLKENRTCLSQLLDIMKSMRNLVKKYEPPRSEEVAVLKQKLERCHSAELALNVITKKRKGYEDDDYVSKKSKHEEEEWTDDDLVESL
# T1 sequence (P51948 whole entry partner): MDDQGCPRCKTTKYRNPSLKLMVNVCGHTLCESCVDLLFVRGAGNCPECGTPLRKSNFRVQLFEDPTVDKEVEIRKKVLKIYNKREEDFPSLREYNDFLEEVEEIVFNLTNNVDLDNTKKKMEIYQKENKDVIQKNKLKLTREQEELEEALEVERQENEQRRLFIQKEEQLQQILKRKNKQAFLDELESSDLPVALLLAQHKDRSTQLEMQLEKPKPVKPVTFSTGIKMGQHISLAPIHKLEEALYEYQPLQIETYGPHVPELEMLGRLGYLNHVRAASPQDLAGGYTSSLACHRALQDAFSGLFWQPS
# Method: (§2) A radiometric protein kinase assay service was provided by Reaction Biology (Freiburg, Germany) to measure the kinase activity of 410 protein kinases and 28 CDKs.
# In the kinase inhibition assay, the residual activity for each compound was calculated using the following formula: Residual activity (%) = 100 × [(signal of compound − low control)/(high control − low control)]. The selectivity score of the compound at the tested concentrations was calculated for residual activity < 50%, that is, inhibition of >50%. The selectivity score for a particular compound at a particular concentration was calculated using the following formula: Selectivity score = (count of data points < 50%)/(total number of data points).
# (§3) In the 28 CDK titration assay, the residual activity and IC50 values of the compound were calculated using the Quattro Workflow V3.1.1 (Quattro Research GmbH, Munich, Germany). The ATP concentration used in each kinase reaction was set to the apparent ATP-Km value. Dose-response curve fitting was performed using a four-parameter logistic regression model in GraphPad Prism 10.4.1 (GraphPad Software, Boston, MA, USA).
# [1] = molecular target: T2, recombinant CDK7/cyclin H/MAT1 (CAK) trimeric complex (Homo sapiens, UniProt P50613); experiment: Covalent binding site evaluation by mass spectrometry; conditions: incubated 1 hour with CAK complex, Arg-C or Arg-C/trypsin digestion
# T2 construct: purchased Thermo Fisher Scientific PV3868
# T2 sequence (P50613 whole entry): as the sequence (P50613 whole entry) above
# T2 sequence (P51946 whole entry partner): as the sequence (P51946 whole entry partner) above
# T2 sequence (P51948 whole entry partner): as the sequence (P51948 whole entry partner) above
# Method: The recombinant CAK complex (CDK7/cyclin H/MAT1; Thermo Fisher Scientific, PV3868) was incubated with Q901 or DMSO for 1 hour at room temperature (RT), and the reaction complexes were resolved by SDS–polyacrylamide gel electrophoresis (PAGE). The bands corresponding to CDK7 were excised for in-gel digestion. Denaturation, reduction, and alkylation were performed using 8 M urea, TCEP, and iodoacetamide at RT, followed by Arg-C digestion (1:100 Arg-C:protein ratio, at 37°C for 18 hours) and Arg-C/trypsin digestion (1:100 Arg-C:protein ratio and 1:50 trypsin:protein ratio, at 37°C for 18 hours). The extracted peptides were loaded and eluted using a high-performance liquid chromatography (HPLC) system and then separated through a linear gradient (3 to 60% mobile phase B in 120 min) at a flow rate of 0.3 μl/min using EASY-Spray HPLC Columns (75 μm/500 mm) (Thermo Fisher Scientific, ES903) at 40°C and introduced into an Orbitrap Exploris 240 LC-MS/MS System (Thermo Fisher Scientific, BRE725535) in positive ion mode and run in data-independent acquisition (DIA) mode. Data acquisition was performed over a mass/charge ratio (m/z) range of 390 to 1010, and peak integrations for fragment ions of the most intense charge state of the doubly carbamidomethylated Cys^312-containing peptide were analyzed using the Skyline software 24.1 (Seattle, WA, USA). […]
# other CDKs = experiment: Radiometric 28 CDK titration assay, selectivity over other CDKs; format: biochemical; conditions: ranging from 242-fold to over 1000-fold
# Method: as §2, §3
# HCT116 xenograft = experiment: HCT116 cell line-derived xenograft efficacy; format: in vivo, BALB/c nude mice; conditions: by day 28; T-DXd 10 mg/kg single iv, Q901 10 mg/kg ip once daily
# Method: BALB/c nude mice were purchased from the Shanghai SIPPR/BK Laboratory Animal Co. Ltd. (Shanghai, China). For in vivo efficacy studies, HCT116 cells or H292 cells were resuspended in PBS and Matrigel (1:1) and implanted subcutaneously. […] Tumor volumes were measured twice weekly after randomization in two dimensions, using a caliper. The TGI was calculated for each group using the formula: TGI (%) = [1 − (Ti − T0)/(Vi − V0)] × 100, where Ti is the average tumor volume of the treatment group on the given day, T0 is the average tumor volume of the treatment group on the day when the treatment was started, Vi is the average tumor volume of the vehicle control group on the same day with Ti, and V0 is the average tumor volume of the vehicle group on the day of treatment start. Statistical significance was calculated using a two-way analysis of variance (ANOVA) followed by Tukey’s multiple comparison test in GraphPad Prism 10.4.1.
# MCF-7 cells = experiment: MCF-7 cell viability (ATP Lite system); format: cell-based; conditions: Homo sapiens, MCF7, read-out: IC50 MCF-7 cell growth
# Method: Fig. 2. Q901 alters RNAPII phosphorylation and transcriptional activity. (A) MCF-7 cells were treated with Q901 at the indicated concentrations for 72, 96, or 120 hours. Cell viability was measured using the ATP Lite system. Inhibition (%) was plotted against the log-transformed Q901 concentration (μM) (n = 3 to 4). Data represent means ± SD. (B and C) RNAPII ChIP-seq was performed following treatment with 100 nM Q901 for the indicated duration. (B) Volcano plot of pan RNAPII ChIP-seq signals after Q901 treatment [n = 2; blue dot indicates P value ≤ 0.05 and log2 fold change (log2FC) ≤ −0.58; red dot indicates P value ≤ 0.05 and log2FC ≥ 0.58]. […] CDK7 ChIP-seq was performed with 100 nM Q901 for the indicated durations.
# Cells were seeded into 96-well plates and treated with compounds at the indicated concentrations and time points. After incubation, cell viability was measured using either CellTiter-Glo luminescent cell viability assay (Promega, Madison, WI, USA, G7572) according to the manufacturer’s instructions. Plates were equilibrated to RT for 30 min before adding 50 μl of CellTiter-Glo reagent to each well. Luminescence was measured using the EnVision Multi Label Reader (PerkinElmer, Waltham, MA, USA). Dose-response curves were fitted using a nonlinear regression model with a sigmoidal dose-response function in GraphPad Prism 10.4.1. The absolute IC5_0 values were calculated using the dose-response curves generated in XL-fit 5 (IDBS Software, Woking, UK) and fitted with the four-parameter logistic equation: fit = A + ((B − A)/{1 + [(C/x)^D]}), where A and B represent the bottom and top plateaus of the curve, respectively, C is the IC5_0 value, x is the compound concentration, and D is the Hill slope.
# [2] = molecular target: T3, recombinant human CDK7/cyclin H/MNAT1 (Homo sapiens, UniProt P50613); experiment: LANCE Ultra TR-FRET CDK7 kinase assay (cell-free enzymatic assay); format: biochemical; conditions: eight-point dilution, top 3000 nM, read-out: IC50 against CDK7
# T3 construct: His-tag; purchased Invitrogen PR6749B
# T3 sequence (P50613 whole entry): as the sequence (P50613 whole entry) above
# T3 sequence (P51946 whole entry partner): as the sequence (P51946 whole entry partner) above
# T3 sequence (P51948 whole entry partner): as the sequence (P51948 whole entry partner) above
# Method: CDK7 kinase activity was measured using a LANCE Ultra TR-FRET kinase assay (Revvity, formerly PerkinElmer, Waltham, MA, USA) according to the manufacturer’s protocol. Briefly, recombinant human CDK7/cyclin H/MNAT1 His-tag protein (Invitrogen, PR6749B) was incubated with compounds (Q901, Q901R, and QS0551508) in kinase buffer in a 384-well format. The assay used a ULight-labeled peptide substrate and a europium-labeled anti-phospho antibody for time-resolved fluorescence resonance energy transfer (TR-FRET) detection.
# TR-FRET signals were measured using an EnVision multimode plate reader (Revvity, EnVision 2105 Alpha) with LANCE/DELFIA detection settings.
# Compounds were tested using an eight-point serial dilution (top concentration: 3000 nM, 1:4 dilution). Signals were normalized to DMSO-treated controls to calculate residual kinase activity (%), and dose-response curves were generated using GraphPad Prism 10.4.1.
# CDK12 = molecular target: T4, CDK12 (Homo sapiens, UniProt Q9NYV4); experiment: Radiometric 28 CDK titration assay; format: biochemical
# T4 construct: purchased Reaction Biology (Freiburg, Germany), assay service
# Method: as §2, §3
# CDK13 = molecular target: T5, CDK13 (Homo sapiens, UniProt Q14004); experiment: Radiometric 28 CDK titration assay; format: biochemical
# T5 construct: purchased Reaction Biology (Freiburg, Germany), assay service
# Method: as §2, §3
# CDK9 = molecular target: T6, CDK9 (Homo sapiens, UniProt P50750); experiment: Radiometric 28 CDK titration assay; format: biochemical
# T6 construct: purchased Reaction Biology (Freiburg, Germany), assay service
# T6 sequence (P50750 whole entry): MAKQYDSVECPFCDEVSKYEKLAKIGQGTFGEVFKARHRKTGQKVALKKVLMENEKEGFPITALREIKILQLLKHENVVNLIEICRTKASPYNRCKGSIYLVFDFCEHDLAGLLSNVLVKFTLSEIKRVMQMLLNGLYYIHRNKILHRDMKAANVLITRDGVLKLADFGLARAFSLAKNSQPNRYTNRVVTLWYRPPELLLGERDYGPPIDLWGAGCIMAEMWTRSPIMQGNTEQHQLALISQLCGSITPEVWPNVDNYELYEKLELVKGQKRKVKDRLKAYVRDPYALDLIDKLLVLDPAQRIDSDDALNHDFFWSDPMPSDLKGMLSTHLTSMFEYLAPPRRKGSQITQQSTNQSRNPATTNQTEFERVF
# T6 sequence (O60563 whole entry partner): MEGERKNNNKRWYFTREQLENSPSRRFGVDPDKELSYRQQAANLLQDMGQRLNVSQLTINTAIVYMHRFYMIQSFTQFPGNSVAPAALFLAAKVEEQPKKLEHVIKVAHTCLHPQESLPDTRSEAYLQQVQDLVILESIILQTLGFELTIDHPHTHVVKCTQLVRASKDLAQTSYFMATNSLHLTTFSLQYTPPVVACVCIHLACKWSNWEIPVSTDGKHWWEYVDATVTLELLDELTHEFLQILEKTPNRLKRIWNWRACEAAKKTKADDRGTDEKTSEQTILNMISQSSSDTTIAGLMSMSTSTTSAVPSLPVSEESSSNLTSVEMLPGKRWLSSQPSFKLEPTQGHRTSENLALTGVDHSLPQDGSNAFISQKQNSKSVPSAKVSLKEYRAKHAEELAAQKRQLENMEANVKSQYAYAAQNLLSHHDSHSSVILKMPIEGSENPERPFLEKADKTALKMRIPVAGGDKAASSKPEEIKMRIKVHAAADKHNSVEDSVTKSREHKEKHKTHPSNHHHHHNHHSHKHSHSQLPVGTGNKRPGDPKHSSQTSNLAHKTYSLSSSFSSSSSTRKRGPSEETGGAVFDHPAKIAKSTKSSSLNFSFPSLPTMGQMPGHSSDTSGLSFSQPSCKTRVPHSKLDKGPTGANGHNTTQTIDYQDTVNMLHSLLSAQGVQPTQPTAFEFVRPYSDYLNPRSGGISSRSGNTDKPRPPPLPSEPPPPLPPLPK
# Method: as §2, §3
# CDK8 = molecular target: T7, CDK8 (Homo sapiens, UniProt P49336); experiment: Radiometric 28 CDK titration assay; format: biochemical
# T7 construct: purchased Reaction Biology (Freiburg, Germany), assay service
# T7 sequence (P49336 whole entry): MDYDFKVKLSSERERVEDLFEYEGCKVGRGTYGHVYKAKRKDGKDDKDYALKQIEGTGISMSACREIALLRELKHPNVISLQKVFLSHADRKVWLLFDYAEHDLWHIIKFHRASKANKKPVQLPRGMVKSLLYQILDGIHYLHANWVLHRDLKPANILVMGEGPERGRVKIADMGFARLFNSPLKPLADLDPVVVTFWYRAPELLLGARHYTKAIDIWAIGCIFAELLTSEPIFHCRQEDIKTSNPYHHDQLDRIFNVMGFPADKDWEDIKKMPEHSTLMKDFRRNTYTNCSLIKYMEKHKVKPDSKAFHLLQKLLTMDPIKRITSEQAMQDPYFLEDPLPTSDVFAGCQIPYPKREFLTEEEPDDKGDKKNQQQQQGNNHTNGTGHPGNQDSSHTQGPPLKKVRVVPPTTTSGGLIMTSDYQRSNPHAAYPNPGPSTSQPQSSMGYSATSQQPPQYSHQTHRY
# T7 sequence (P24863 whole entry partner): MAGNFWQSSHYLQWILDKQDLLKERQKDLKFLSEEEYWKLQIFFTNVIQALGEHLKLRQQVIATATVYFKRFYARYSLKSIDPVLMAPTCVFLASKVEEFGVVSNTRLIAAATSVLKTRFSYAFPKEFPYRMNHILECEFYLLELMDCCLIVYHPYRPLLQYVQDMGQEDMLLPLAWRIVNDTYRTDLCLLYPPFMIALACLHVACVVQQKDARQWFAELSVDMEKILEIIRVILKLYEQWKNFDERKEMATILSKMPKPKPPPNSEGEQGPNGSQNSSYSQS
# Method: as §2, §3
# [3] = first regimen: SG 3 mg/kg, Q901 10 mg/kg
# [4] = second regimen: SG 10 mg/kg, Q901 3 mg/kg
molecule,measurement,setting,value
sacituzumab govitecan [SG],H292 IC50,H292 cells; monotherapy,0.5 µg/mL
same,time at which tumors showed regrowth,"H292 xenograft; H292 xenograft, SG alone",> 14 days
same,tumor growth inhibition (TGI),H292 xenograft; [3],47%
same,tumor growth inhibition (TGI),H292 xenograft; [4],72%
C=C(F)C(=O)Nc1ccc2c(-c3ccccc3CNc3nc(NC[C@H]4CCNC[C@@H]4O)nc4c(C(C)C)cnn34)nccc2c1 [Q901],pIC50,HCT116 cells,8.08
same,inhibition at 1 µM,"CDK7; 1 μM, 1 hour",99%
same,remaining activity at 1 µM,"CDK7; 1 μM, 1 hour, read-out: residual activity value CDK7",1%
same,pIC50,CDK7; in vitro,8.00
same,reduction of intensity of Cys312-containing peptides (residues 310 to 329 and 310 to 318),[1],~99%
same,IC50 values for other CDKs higher than that for CDK7,other CDKs,≥ 242 fold
same,tumor growth inhibition (TGI),HCT116 xenograft,81%
same,pIC50,"H292 cells; Homo sapiens, NCI-H292, Single treatment / monotherapy",7.92
same,tumor growth inhibition (TGI),H292 xenograft; [3],80%
same,tumor growth inhibition (TGI),H292 xenograft; [4],61%
same,pIC50,MCF-7 cells; 72 hours,7.02
same,pIC50,MCF-7 cells; 96 hours,7.80
same,pIC50,MCF-7 cells; 120 hours,8.30
same,pIC50,[2],7.98
same,fold difference in inhibition of CDK12 compared to CDK7,CDK12,207 fold
same,fold difference in inhibition of CDK13 compared to CDK7,CDK13,641 fold
same,fold difference in inhibition of CDK9 compared to CDK7,CDK9,715 fold
same,fold difference in inhibition of CDK8 compared to CDK7,CDK8,> 1000 fold
same,pIC50,CDK8; ATP at apparent ATP-Km,< 5.00
